Data from US8287923B2, “Compositions and methods for treating immune disorders” (priority 2005, dated 2012).

Test system: normal human epidermal keratinocytes (NHEK)
Experiment: Affymetrix gene array analysis, autoantigen gene expression
Assay type: cell-based
Description: The gene array experiment was performed at the Core Facility of Genomics of the Medical College of Georgia, according to the instructions of the manufacturer (Affymetrix, Santa Clara, Calif.). Briefly, NHEK and OSC2 cells treated with 100 μM EGCG for different time period were extracted for total RNA, the RNA was processed for probes and hybridized with a cDNA microarray (HuG133A, Affymetrix) which represents 22,283 human series. DNA chips were read with a Hewlett-Packard GeneArray Scanner at a resolution of […] and were analyzed with the GeneSpring software (Silicon Genetics, Redwood City, Calif.). Details of this analysis will be published elsewhere (Hsu et al., manuscript in preparation).
Gene assays provide a valuable tool for studying the broad response of cells to agents, and we have used this approach to compare the differential effects of GTPP on gene expression in NHEK and human oral squamous carcinoma cells (Hsu, et al, manuscript in preparation). […] See also Hsu, S. et al. (2005) JPET 315:805-811, which is incorporated by reference in its entirety.

Q: Which results are given for O=C(O[C@@H]1Cc2c(O)cc(O)cc2O[C@@H]1c1cc(O)c(O)c(O)c1)c1cc(O)c(O)c(O)c1 [EGCG, (−)-epigallocatechin-3-gallate]?
A: genes either up- or down-regulated by at least 2-fold (100 uM EGCG, both cell types (NHEK, oral squamous carcinoma cells), 24 hrs post-treatment): approximately 2100 genes; 60 kDa, SS-A/Ro (210438_x_at) expression, normalized (0.5 h, 100 μM): 0.71; 60 kDa, SS-A/Ro (212852_s_at) expression, normalized (0.5 h, 100 μM): 0.60; Ku autoantigen, 80 kDa (208642_s_at) expression, normalized (0.5 h, 100 μM): 1.29; Ku autoantigen, 80 kDa (208643_s_at) expression, normalized (0.5 h, 100 μM): 2.34; Nuclear antigen SP100 (202863_at) expression, normalized (0.5 h, 100 μM): 1.72; Nuclear antigen SP100 (202864_s_at) expression, normalized (0.5 h, 100 μM): 3.12; Nuclear antigen SP10075 kDa (213226_at) expression, normalized (0.5 h, 100 μM): 3.99; RNA polymerase 1 (202692_s-at) expression, normalized (0.5 h, 100 μM): 0.50; SS-B/La (201138_s_at) expression, normalized (0.5 h, 100 μM): 0.84; SS-B/La (201139_s_at) expression, normalized (0.5 h, 100 μM): 0.71; centromere protein C1 (20473_at) expression, normalized (0.5 h, 100 μM): 1.27; coilin (203653_s_at) expression, normalized (0.5 h, 100 μM): 0.49; coilin (203654_s_at) expression, normalized (0.5 h, 100 μM): 1.11; fodrin-α (208611_s_at) expression, normalized (0.5 h, 100 μM): 0.41; fodrin-α (215235_s_at) expression, normalized (0.5 h, 100 μM): 0.49; golgin-67 (208797_s_at) expression, normalized (0.5 h, 100 μM): 1.26; golgin-67 (208798_x_at) expression, normalized (0.5 h, 100 μM): 0.81; golgin-67 (210425_x_at) expression, normalized (0.5 h, 100 μM): 0.50; golgin-67 (213650_at) expression, normalized (0.5 h, 100 μM): 0.24; scleroderma autoantigen 1, 75 kDa (213226_at) expression, normalized (0.5 h, 100 μM): 3.99; spectrin-β non-erythrocyctic 1 (212071_s_at) expression, normalized (0.5 h, 100 μM): 0.91; thyroid autoantigen 70 kDa (Ku antigen) (200792_at) expression, normalized (0.5 h, 100 μM): 1.15; ADPRT [poly(ADP)-ribose polymerase] expression (0.5 h, 100 μM, vs time zero): 3.547 fold; ANAP12 expression (0.5 h, 100 μM, vs time zero): 0.505 fold; ANXA11 expression (0.5 h, 100 μM, vs time zero): 1.043 fold; CALR expression (0.5 h, 100 μM, vs time zero): 0.71 fold; CBARA1 expression (0.5 h, 100 μM, vs time zero): 0.506 fold; CENPA expression (0.5 h, 100 μM, vs time zero): 7.677 fold; CENPB expression (0.5 h, 100 μM, vs time zero): 0.506 fold; CENPC1 expression (0.5 h, 100 μM, vs time zero): 1.269 fold; CHD4 expression (0.5 h, 100 μM, vs time zero): 0.766 fold; COL17A1 expression (0.5 h, 100 μM, vs time zero): 1.749 fold; CTDSP1 expression (0.5 h, 100 μM, vs time zero): 0.71 fold; CTDSP2 expression (0.5 h, 100 μM, vs time zero): 1.61 fold; CTDSPL expression (0.5 h, 100 μM, vs time zero): 2.83 fold; DLAT expression (0.5 h, 100 μM, vs time zero): 1.54 fold; EPPK1 expression (0.5 h, 100 μM, vs time zero): 0.793 fold; FBL expression (0.5 h, 100 μM, vs time zero): 1.64 fold; FLJ31657 expression (0.5 h, 100 μM, vs time zero): 0.833 fold; FLNB (Filamin B, β) expression (0.5 h, 100 μM, vs time zero): 1.379 fold; FLNB (Filamin B, γ) expression (0.5 h, 100 μM, vs time zero): 0.72 fold; G22P1 (Thyroid autoantigen, 70 kDa, Ku antigen) expression (0.5 h, 100 μM, vs time zero): 1.15 fold; GMEB2 expression (0.5 h, 100 μM, vs time zero): 0.584 fold; GOLGA1 expression (0.5 h, 100 μM, vs time zero): 0.398 fold; GOLGA2 expression (0.5 h, 100 μM, vs time zero): 0.332 fold; GOLGA3 expression (0.5 h, 100 μM, vs time zero): 0.533 fold; GOLGA4 expression (0.5 h, 100 μM, vs time zero): 0.822 fold; GOLGA5 expression (0.5 h, 100 μM, vs time zero): 1.566 fold; GOLGB1 expression (0.5 h, 100 μM, vs time zero): 0.969 fold; HARS expression (0.5 h, 100 μM, vs time zero): 1.27 fold; HARSL expression (0.5 h, 100 μM, vs time zero): 1.12 fold; HSA6591 expression (0.5 h, 100 μM, vs time zero): 0.456 fold; HUMAUANTIG expression (0.5 h, 100 μM, vs time zero): 0.948 fold; IMP-2 expression (0.5 h, 100 μM, vs time zero): 1.615 fold; LAD1 expression (0.5 h, 100 μM, vs time zero): 0.799 fold; LMO4 expression (repeat 1) (0.5 h, 100 μM, vs time zero): 0.272 fold; LMO4 expression (repeat 2) (0.5 h, 100 μM, vs time zero): 0.6 fold; MGC5560 expression (repeat 1) (0.5 h, 100 μM, vs time zero): 4.392 fold; MGC5560 expression (repeat 2) (0.5 h, 100 μM, vs time zero): 7.07 fold; NS (Nucleostemin) expression (0.5 h, 100 μM, vs time zero): 0.634 fold; PDHB expression (0.5 h, 100 μM, vs time zero): 1.079 fold; PDX1 expression (0.5 h, 100 μM, vs time zero): 1.103 fold; PMSCL1, 75 kDa expression (0.5 h, 100 μM, vs time zero): 3.993 fold; PMSCL2 expression (0.5 h, 100 μM, vs time zero): 0.959 fold; POLR1B expression (0.5 h, 100 μM, vs time zero): 0.67 fold; POLR1D expression (0.5 h, 100 μM, vs time zero): 0.90 fold; POLR2A expression (repeat 1) (0.5 h, 100 μM, vs time zero): 0.13 fold; POLR2A expression (repeat 2) (0.5 h, 100 μM, vs time zero): 1.03 fold; POLR2B expression (0.5 h, 100 μM, vs time zero): 1.83 fold; POLR2C expression (0.5 h, 100 μM, vs time zero): 1.32 fold; POLR2D expression (0.5 h, 100 μM, vs time zero): 1.14 fold; POLR2E expression (0.5 h, 100 μM, vs time zero): 0.45 fold; POLR2F expression (0.5 h, 100 μM, vs time zero): 0.90 fold; POLR2G expression (0.5 h, 100 μM, vs time zero): 1.09 fold; POLR2H expression (0.5 h, 100 μM, vs time zero): 0.88 fold; POLR3C expression (0.5 h, 100 μM, vs time zero): 0.90 fold; POLR3G expression (0.5 h, 100 μM, vs time zero): 1.55 fold; PSME3 expression (0.5 h, 100 μM, vs time zero): 2.554 fold; RALY expression (0.5 h, 100 μM, vs time zero): 1.556 fold; SART1 expression (0.5 h, 100 μM, vs time zero): 1.982 fold; SLC25A16 expression (0.5 h, 100 μM, vs time zero): 1.022 fold; SNRP70 expression (0.5 h, 100 μM, vs time zero): 3.59 fold; SNRPA expression (0.5 h, 100 μM, vs time zero): 1.29 fold; SNRPB2 expression (0.5 h, 100 μM, vs time zero): 0.49 fold; SNRPB expression (repeat 1) (0.5 h, 100 μM, vs time zero): 0.96 fold; SNRPB expression (repeat 2) (0.5 h, 100 μM, vs time zero): 0.62 fold; SNRPC expression (0.5 h, 100 μM, vs time zero): 1.28 fold; SNRPD1 expression (repeat 1) (0.5 h, 100 μM, vs time zero): 2.098 fold; SNRPD1 expression (repeat 2) (0.5 h, 100 μM, vs time zero): 0.755 fold; SOX13 expression (0.5 h, 100 μM, vs time zero): 1.304 fold; SP100 expression (repeat 1) (0.5 h, 100 μM, vs time zero): 1.72 fold; SP100 expression (repeat 2) (0.5 h, 100 μM, vs time zero): 3.123 fold; SP110 expression (repeat 1) (0.5 h, 100 μM, vs time zero): 5.725 fold; SP110 expression (repeat 2) (0.5 h, 100 μM, vs time zero): 4.176 fold; SP110 expression (repeat 3) (0.5 h, 100 μM, vs time zero): 1.149 fold; SPTAN1 (α-fodrin) expression (repeat 1) (0.5 h, 100 μM, vs time zero): 0.41 fold; SPTAN1 (α-fodrin) expression (repeat 2) (0.5 h, 100 μM, vs time zero): 0.49 fold; SPTBN expression (0.5 h, 100 μM, vs time zero): 0.91 fold; SSA2 (autoantigen SS-A/Ro) expression (repeat 2) (0.5 h, 100 μM, vs time zero): 0.709 fold; SSA2 expression (repeat 1) (0.5 h, 100 μM, vs time zero): 1.009 fold; SSA2 expression (repeat 3) (0.5 h, 100 μM, vs time zero): 0.505 fold; SSA2 expression (repeat 4) (0.5 h, 100 μM, vs time zero): 0.596 fold; SSB (autoantigen La) expression (repeat 1) (0.5 h, 100 μM, vs time zero): 0.838 fold; SSB (autoantigen La) expression (repeat 2) (0.5 h, 100 μM, vs time zero): 0.711 fold; SSNA1 expression (0.5 h, 100 μM, vs time zero): 1.354 fold; SSSCA1 expression (0.5 h, 100 μM, vs time zero): 1.267 fold; STRN3 expression (0.5 h, 100 μM, vs time zero): 0.425 fold; TOP1 expression (repeat 1) (0.5 h, 100 μM, vs time zero): 0.85 fold; TOP1 expression (repeat 2) (0.5 h, 100 μM, vs time zero): 0.62 fold; UBTF expression (0.5 h, 100 μM, vs time zero): 0.498 fold; XRCC5 (Ku autoantigen, 80 kDa) expression (repeat 1) (0.5 h, 100 μM, vs time zero): 2.338 fold; XRCC5 (Ku autoantigen, 80 kDa) expression (repeat 2) (0.5 h, 100 μM, vs time zero): 1.87 fold; dJ963E22.1 expression (0.5 h, 100 μM, vs time zero): 1.842 fold; α-NAC expression (0.5 h, 100 μM, vs time zero): 0.632 fold
